{"source": "patent US8623416B2", "about": "(priority 2009, dated 2014)", "key": {"[1]": {"test_system": "Yellow Fever", "set-up": "species or system Syrian hamsters", "settings": "hamster, in vivo"}, "[2]": {"settings": "10 mg of squalamine as a phosphate suspension"}, "[3]": {"settings": "for Toxicity: hamster, in vivo, sc"}, "[4]": {"format": "physicochemical", "settings": "0.1 ml squalamine lactate 10 mg/ml in water + 1 volume 0.1M solution of the anion, turbid = insoluble salt form"}, "[5]": {"test_system": "Yellow Fever", "set-up": "species or system Syrian hamsters", "settings": "hamster, in vivo", "remark": "listed apart in the source"}, "[6]": {"test_system": "murine cytomegalovirus (MCMV)", "format": "in vivo, Balb/c mice", "settings": "for viral titers in lungs and salivary glands vs other groups / viral titers in spleen and liver vs control: day 7"}, "[7]": {"test_system": "Eastern Equine Encephalitis Virus", "set-up": "species or system hamsters (Syrian golden)", "settings": "hamster, in vivo"}, "[8]": {"test_system": "Eastern Equine Encephalitis Virus", "set-up": "species or system mice", "settings": "mouse, in vivo"}, "[9]": {"test_system": "human Hepatitis B virus", "test": "Hepatitis B virus replication in primary human hepatocytes, PCR (Example 19)", "format": "cell-based", "experimental": "The purpose of this experiment was to determine the antiviral activity of squalamine against human Hepatitis B virus. The experiment was conducted in vitro, using primary human hepatocytes.\nExperimental design: Primary human hepatocytes were established in a 96 well microtiter plate. Squalamine was then added at concentrations of 2, 6 or 20 μg/ml followed by an inoculum of Hep B virus, and then in culture for 16 hours, after which fresh medium was introduced, and the cells maintained in culture for 14 days. In a second experiment, squalamine at 6 or 20 μg/ml was added to the cells at 24 hours post inoculation for a 16 hour exposure, followed by removal of medium, replacement with fresh medium, and continued culture for 14 days. Viral growth was measured by PCR using viral specific primers and normalized to the total RNA extracted from each corresponding well."}, "[10]": {"test_system": "Dengue virus"}, "[11]": {"test_system": "human immunodeficiency virus (HIV)"}, "[12]": {"settings": "in vivo; cited from earlier work"}, "[13]": {"settings": "in vivo; cited from earlier work", "remark": "listed apart in the source"}, "[14]": {"test_system": "human Hepatitis Delta virus", "test": "Hepatitis Delta virus replication in primary human hepatocytes, PCR (Example 20)"}, "[15]": {"settings": "squalamine phosphate 10 mg/kg/day s.c."}, "[16]": {"settings": "mouse, in vivo, ip, 10 mg/kg/day"}, "[17]": {"settings": "20 μg/ml, added during initial stages of infection"}}, "note": "Entries after “also recorded” stand apart in the source; their conditions may differ. Where two headings read alike, the source gives them in different places.", "data": [{"molecule": "squalamine phosphate", "values": [{"measurement": "survival", "setting": "[1]", "value": 70, "unit": "%"}, {"measurement": "water added until fully dissolved", "setting": "[2]", "value": "about 250 ml"}, {"measurement": "Toxicity", "setting": "[3]; 15 mg/kg/day", "value": "none"}, {"measurement": "Toxicity", "setting": "[3]; 30 mg/kg/day", "value": "none"}, {"measurement": "Toxicity", "setting": "[3]; 60 mg/kg/day", "value": "none"}, {"measurement": "lesions at the sites of administration", "setting": "[3]; s.c. dosing at 10 mg/ml, recorded 7 days post injection", "value": "no lesions"}, {"measurement": "persistence of local signs (lactate: signs and symptoms; phosphate: slight swelling)", "setting": "0.1 ml of 10 mg/ml s.c.", "value": "about 1 week"}, {"measurement": "local signs at injection site", "setting": "human, in vivo, sc", "value": "free of visible signs of irritation, save for a slight swelling"}, {"measurement": "pain on injection", "setting": "human, in vivo, sc", "value": "no pain other than that produced by the needle prick"}]}, {"molecule": "CC(=O)C(=O)[O-].[Na+]", "note": "[Sodium pyruvate]", "values": [{"measurement": "Turbidity", "setting": "[4]", "value": "No and no"}]}, {"molecule": "3 beta-N-1-(N-[3-(4-aminobutyl)]-1,3-diaminopropane)-7 alpha,24 zeta-dihydroxy-5 alpha-cholestane 24-sulfate [squalamine]", "values": [{"measurement": "survival", "setting": "[1]", "value": 70, "unit": "%"}, {"measurement": "animals cured", "setting": "[5]", "value": 40, "unit": "%"}, {"measurement": "outcome of treatment of established infection", "setting": "[5]", "value": "cure a lethal infection"}, {"measurement": "survival through day 21", "setting": "[5]", "value": 60, "unit": "%"}, {"measurement": "viral titers in lung compared with control", "setting": "[6]; 10 mg/kg/day i.p.", "value": "trend toward reduction"}, {"measurement": "viral titers in lungs and salivary glands vs other groups", "setting": "[6]; 10 mg/kg/day i.p.", "value": "no significant differences"}, {"measurement": "viral titers in spleen and liver vs control", "setting": "[6]; 10 mg/kg/day i.p.", "value": "significantly lower than in the control cohort"}, {"measurement": "viral titers in lungs and salivary glands vs other groups", "setting": "[6]; [15]", "value": "no significant differences"}, {"measurement": "viral titers in spleen and liver vs control", "setting": "[6]; [15]", "value": "significantly lower than in the control cohort"}, {"measurement": "virus in the liver and spleen", "setting": "[6]; mouse, in vivo", "value": "significantly reduced; also recorded: undetectable levels"}, {"measurement": "effect on viral growth in the salivary gland", "setting": "[6]; [16]", "value": "little effect"}, {"measurement": "reduction in viral growth in liver, spleen, and lung", "setting": "[6]; [16]", "value": "greater than 10 fold"}, {"measurement": "virus in the liver and spleen", "setting": "[6]; [16]", "value": "undetectable levels"}, {"measurement": "effect on survival", "setting": "[7]", "value": "extended survival; also recorded: increase survival"}, {"measurement": "effect on viremia", "setting": "[7]", "value": "significantly reduce viremia"}, {"measurement": "hamsters still alive at the end of treatment", "setting": "[7]", "value": "6/10"}, {"measurement": "plasma concentrations of virus lower than vehicle", "setting": "[7]", "value": "about 100 fold"}, {"measurement": "efficacy in mice", "setting": "[8]", "value": "ineffective"}, {"measurement": "inhibition of viral production", "setting": "[9]; 2 μg/ml, added only at the outset of infection", "value": 14, "unit": "%"}, {"measurement": "inhibition of viral production", "setting": "[9]; 6 μg/ml, added at 24 hours", "value": 30, "unit": "%"}, {"measurement": "inhibition of viral production", "setting": "[9]; 6 μg/ml, added at the onset of infection", "value": 54, "unit": "%"}, {"measurement": "inhibition of viral production", "setting": "[9]; 20 μg/ml, added at 24 hours", "value": 64, "unit": "%"}, {"measurement": "inhibition of viral production", "setting": "[9]; [17]", "value": 83, "unit": "%"}, {"measurement": "Toxicity", "setting": "[3]; 15 mg/kg/day", "value": "Mild/moderate by day 1"}, {"measurement": "Toxicity", "setting": "[3]; 30 mg/kg/day", "value": "moderate"}, {"measurement": "Toxicity", "setting": "[3]; 60 mg/kg/day", "value": "Severe, open wounds"}, {"measurement": "cell viability", "setting": "[10]", "value": "not diminished"}, {"measurement": "inhibition of viral infection", "setting": "[10]", "value": 100, "unit": "%"}, {"measurement": "Toxicity", "setting": "[11]", "value": "no evidence of toxicity"}, {"measurement": "inhibition of HIV infection", "setting": "[11]", "value": "about 50%; also recorded: about 20%"}, {"measurement": "tolerability", "setting": "[12]", "value": "well tolerated"}, {"measurement": "tolerability", "setting": "[13]", "value": "well tolerated"}, {"measurement": "inhibition of viral production", "setting": "[14]; [17]", "value": 90, "unit": "%"}, {"measurement": "cytotoxicity in vitro", "setting": "[14]; 60 μg/ml, primary human hepatocytes", "value": "cytotoxic"}]}, {"molecule": "O=C[C@H](O)[C@@H](O)[C@H](O)[C@H](O)COP(=O)(O)O", "note": "[Glucose 6-phosphate]", "values": [{"measurement": "Turbidity", "setting": "[4]", "value": "No and no"}]}, {"molecule": "O=P([O-])([O-])OP(=O)([O-])OP(=O)([O-])[O-].[Na+].[Na+].[Na+].[Na+].[Na+]", "note": "[Sodium triphosphate]", "values": [{"measurement": "Turbidity", "setting": "[4]; triphosphate", "value": "Yes and yes"}]}, {"molecule": "NC(=O)c1ncn([C@@H]2O[C@H](CO)[C@@H](O)[C@H]2O)n1", "note": "[ribavirin, reference compound]", "values": [{"measurement": "survival vs placebo", "setting": "[1]", "value": "fared no better than the placebo-treated cohort"}]}]}
